According to ChEMBL document CHEMBL1201862, “PubChem BioAssay data set” (2004):
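Five compound concentrations were applied to cells in 96-well plates for 48 hours; endpoints were derived by simple linear interpolation of the resulting dose-response curve. GI50: concentration for 50% inhibition of growth.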 Active and inactive are the calls of the source. Rule as the data show it: active = GI50 up to about 1.1 µM and inactive = higher.

What was measured:
Assay in all cases: NCI-60 cell line screen, 48 h
A498 = test system: A498
MDA-MB-435 = test system: MDA-MB-435
SK-MEL-28 = test system: SK-MEL-28
U-251 = test system: U-251
SK-MEL-2 = test system: SK-MEL-2
RXF 393 = test system: RXF 393
PC-3 = test system: PC-3
M14 = test system: M14
CAKI-1 = test system: CAKI-1
SF-295 = test system: SF-295
HT-29 = test system: HT-29
ACHN = test system: ACHN
SK-OV-3 = test system: SK-OV-3
HCT-116 = test system: HCT-116
UACC-62 = test system: UACC-62
LOX IMVI = test system: LOX IMVI
UACC-257 = test system: UACC-257
HOP-92 = test system: HOP-92
SF-539 = test system: SF-539
HOP-62 = test system: HOP-62

Compound: C=C(C)C1CC2(C)C(C)CC(O)CC2C(OC(=O)C=C(C)C)C1O (stereo unspecified)
- GI50 (A498): 65.5 µM (inactive)
- GI50 (MDA-MB-435): 38.1 µM (inactive)
- GI50 (SK-MEL-28): 51.2 µM (inactive)
- GI50 (U-251): 40 µM (inactive)
- GI50 (SK-MEL-2): 61.5 µM (inactive)
- GI50 (RXF 393): 26.9 µM (inactive)
- GI50 (PC-3): 37.6 µM (inactive)
- GI50 (M14): 33.7 µM (inactive)
- GI50 (CAKI-1): 43.3 µM (inactive)
- GI50 (SF-295): 23 µM (inactive)
- GI50 (HT-29): 24.4 µM (inactive)
- GI50 (ACHN): 18.6 µM (inactive)
- GI50 (SK-OV-3): 58.6 µM (inactive)
- GI50 (HCT-116): 52.7 µM (inactive)
- GI50 (UACC-62): 71.9 µM (inactive)
- GI50 (LOX IMVI): 55 µM (inactive)
- GI50 (UACC-257): 53.1 µM (inactive)
- GI50 (HOP-92): 23.2 µM (inactive)
- GI50 (SF-539): 30.9 µM (inactive)

Compound: C1=C\CCCCN2C[C@H]3CCCC/C=C\CCCCN4CC[C@@H]([C@H](CCCCCC/1)C4)[C@H](C3)C2
- GI50 (A498): 6.65 µM (inactive)
- GI50 (MDA-MB-435): 1.86 µM (inactive)
- GI50 (SK-MEL-28): 1.93 µM (inactive)
- GI50 (U-251): 2.2 µM (inactive)
- GI50 (SK-MEL-2): 1.88 µM (inactive)
- GI50 (RXF 393): 1.52 µM (inactive)
- GI50 (PC-3): 3.12 µM (inactive)
- GI50 (CAKI-1): 2.79 µM (inactive)
- GI50 (SF-295): 1.71 µM (inactive)
- GI50 (HOP-62): 2.23 µM (inactive)
- GI50 (HT-29): 2.07 µM (inactive)
- GI50 (ACHN): 2.07 µM (inactive)
- GI50 (SK-OV-3): 8.09 µM (inactive)
- GI50 (HCT-116): 2.11 µM (inactive)
- GI50 (UACC-62): 1.87 µM (inactive)
- GI50 (LOX IMVI): 1.74 µM (inactive)
- GI50 (UACC-257): 1.76 µM (inactive)
- GI50 (HOP-92): 2.38 µM (inactive)
- GI50 (SF-539): 1.87 µM (inactive)

Compound: CC1NCCC(CC(=O)O)C1CC(=O)O (stereo unspecified)
- GI50 (A498): > 100 µM (inactive)
- GI50 (MDA-MB-435): > 100 µM (inactive)
- GI50 (SK-MEL-28): > 100 µM (inactive)
- GI50 (U-251): > 100 µM (inactive)
- GI50 (SK-MEL-2): > 100 µM (inactive)
- GI50 (RXF 393): > 100 µM (inactive)
- GI50 (PC-3): > 100 µM (inactive)
- GI50 (M14): > 100 µM (inactive)
- GI50 (CAKI-1): > 100 µM (inactive)
- GI50 (SF-295): > 100 µM (inactive)
- GI50 (HOP-62): > 100 µM (inactive)
- GI50 (HT-29): > 100 µM (inactive)
- GI50 (ACHN): > 100 µM (inactive)
- GI50 (SK-OV-3): > 100 µM (inactive)
- GI50 (HCT-116): > 100 µM (inactive)
- GI50 (UACC-62): > 100 µM (inactive)
- GI50 (LOX IMVI): > 100 µM (inactive)
- GI50 (UACC-257): > 100 µM (inactive)
- GI50 (HOP-92): > 100 µM (inactive)

Compound: CC1=CC[C@](C)(O)[C@@]2(C)CC[C@H]3C(=C(C)C)C(=O)C[C@]3(C)C[C@H]12
- GI50 (A498): > 50 µM (inactive)
- GI50 (MDA-MB-435): 18.7 µM (inactive)
- GI50 (SK-MEL-28): > 50 µM (inactive)
- GI50 (U-251): > 50 µM (inactive)
- GI50 (SK-MEL-2): > 50 µM (inactive)
- GI50 (RXF 393): 30 µM (inactive)
- GI50 (PC-3): 21.4 µM (inactive)
- GI50 (M14): 24.8 µM (inactive)
- GI50 (CAKI-1): 16 µM (inactive)
- GI50 (SF-295): > 50 µM (inactive)
- GI50 (HOP-62): 42.2 µM (inactive)
- GI50 (HT-29): 24.8 µM (inactive)
- GI50 (ACHN): 38.7 µM (inactive)
- GI50 (SK-OV-3): > 50 µM (inactive)
- GI50 (HCT-116): 14.1 µM (inactive)
- GI50 (UACC-62): 11.9 µM (inactive)
- GI50 (LOX IMVI): 7.93 µM (inactive)
- GI50 (UACC-257): > 50 µM (inactive)
- GI50 (HOP-92): > 50 µM (inactive)
- GI50 (SF-539): > 50 µM (inactive)

Compound: O=c1c2c(sc3ccccc13)NCN(CCc1ccccc1)C2
- GI50 (A498): 67.9 µM (inactive)
- GI50 (MDA-MB-435): 35.1 µM (inactive)
- GI50 (SK-MEL-28): 34.9 µM (inactive)
- GI50 (U-251): 36.8 µM (inactive)
- GI50 (SK-MEL-2): 23.8 µM (inactive)
- GI50 (RXF 393): 36.3 µM (inactive)
- GI50 (PC-3): 39.3 µM (inactive)
- GI50 (M14): 27 µM (inactive)
- GI50 (CAKI-1): 41.6 µM (inactive)
- GI50 (SF-295): 20.7 µM (inactive)
- GI50 (HOP-62): 34.6 µM (inactive)
- GI50 (HT-29): 18.4 µM (inactive)
- GI50 (ACHN): 35.2 µM (inactive)
- GI50 (SK-OV-3): 66.5 µM (inactive)
- GI50 (HCT-116): 23.4 µM (inactive)
- GI50 (UACC-62): 34.2 µM (inactive)
- GI50 (LOX IMVI): 33.5 µM (inactive)
- GI50 (UACC-257): 33.5 µM (inactive)
- GI50 (HOP-92): 53 µM (inactive)
- GI50 (SF-539): 55.3 µM (inactive)

Compound: O=C1c2ccccc2C(=O)N1c1nc(-c2ccc(Cl)cc2)cc(N2N=C(c3ccc(Br)cc3)CC2c2ccccc2)n1 (stereo unspecified)
- GI50 (A498): 19.2 µM (inactive)
- GI50 (MDA-MB-435): 0.745 µM (active)
- GI50 (SK-MEL-28): 7.73 µM (inactive)
- GI50 (U-251): 1.67 µM (inactive)
- GI50 (SK-MEL-2): 3.26 µM (inactive)
- GI50 (RXF 393): 9.16 µM (inactive)
- GI50 (PC-3): 3.93 µM (inactive)
- GI50 (M14): 3.73 µM (inactive)
- GI50 (CAKI-1): 1.51 µM (inactive)
- GI50 (SF-295): 0.91 µM (active)
- GI50 (HOP-62): 2.92 µM (inactive)
- GI50 (HT-29): 2.94 µM (inactive)
- GI50 (ACHN): 3.9 µM (inactive)
- GI50 (SK-OV-3): 6.34 µM (inactive)
- GI50 (HCT-116): 2.01 µM (inactive)
- GI50 (UACC-62): 2.72 µM (inactive)
- GI50 (LOX IMVI): 1.29 µM (inactive)
- GI50 (UACC-257): 6.7 µM (inactive)
- GI50 (HOP-92): 11.4 µM (inactive)
- GI50 (SF-539): 2.16 µM (inactive)

Compound: Cc1ccc(/C=C2\CN(C)CC3C(c4ccc(C)cc4)=C(C#N)C(=O)NC23)cc1 (stereo unspecified)
- GI50 (A498): > 50 µM (inactive)
- GI50 (MDA-MB-435): > 50 µM (inactive)
- GI50 (SK-MEL-28): > 50 µM (inactive)
- GI50 (U-251): > 50 µM (inactive)
- GI50 (SK-MEL-2): > 50 µM (inactive)
- GI50 (RXF 393): > 50 µM (inactive)
- GI50 (PC-3): > 50 µM (inactive)
- GI50 (M14): > 50 µM (inactive)
- GI50 (CAKI-1): > 50 µM (inactive)
- GI50 (SF-295): > 50 µM (inactive)
- GI50 (HOP-62): > 50 µM (inactive)
- GI50 (HT-29): > 50 µM (inactive)
- GI50 (ACHN): > 50 µM (inactive)
- GI50 (SK-OV-3): > 50 µM (inactive)
- GI50 (HCT-116): > 50 µM (inactive)
- GI50 (UACC-62): > 50 µM (inactive)
- GI50 (LOX IMVI): > 50 µM (inactive)
- GI50 (UACC-257): > 50 µM (inactive)
- GI50 (HOP-92): 29.3 µM (inactive)
